In patent US5068354A, “Epoxysuccinic acid derivatives” (Taisho Pharmaceutical Co., Ltd., priority 1989, dated 1991):

Assays:
Assay type in all cases: biochemical
[1] = molecular target: T1, CANP (μCANP, Calpain I) (Homo sapiens, UniProt P07384); assay: Inhibitory Activity against CANP; details: alkali-denatured casein, pH 7.5, preincubated 30° C. 5 min, incubation 20 min, read-out: concentration of the test drug required for 50% inhibition (IC50)
T1 construct: purchased Nacalai Tesque Inc
T1 sequence (P07384 1-714): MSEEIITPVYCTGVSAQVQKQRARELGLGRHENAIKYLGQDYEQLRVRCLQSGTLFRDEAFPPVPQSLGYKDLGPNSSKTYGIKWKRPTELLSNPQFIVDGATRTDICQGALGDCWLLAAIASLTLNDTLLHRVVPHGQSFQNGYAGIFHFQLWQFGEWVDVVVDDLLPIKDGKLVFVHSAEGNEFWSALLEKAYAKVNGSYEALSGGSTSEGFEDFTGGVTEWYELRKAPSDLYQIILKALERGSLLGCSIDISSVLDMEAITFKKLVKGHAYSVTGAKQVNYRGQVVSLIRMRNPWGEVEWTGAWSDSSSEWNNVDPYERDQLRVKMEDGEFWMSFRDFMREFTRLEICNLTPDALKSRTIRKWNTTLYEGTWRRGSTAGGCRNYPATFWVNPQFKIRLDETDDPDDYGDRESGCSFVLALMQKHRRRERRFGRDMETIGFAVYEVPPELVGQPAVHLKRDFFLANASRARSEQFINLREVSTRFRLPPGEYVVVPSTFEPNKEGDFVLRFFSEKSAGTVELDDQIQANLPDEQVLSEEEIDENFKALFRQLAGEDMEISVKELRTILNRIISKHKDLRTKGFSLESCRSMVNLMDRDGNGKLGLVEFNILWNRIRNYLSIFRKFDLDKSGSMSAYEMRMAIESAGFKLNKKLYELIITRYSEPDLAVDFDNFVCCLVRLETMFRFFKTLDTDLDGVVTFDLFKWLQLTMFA
T1 sequence (P04632 1-268 partner): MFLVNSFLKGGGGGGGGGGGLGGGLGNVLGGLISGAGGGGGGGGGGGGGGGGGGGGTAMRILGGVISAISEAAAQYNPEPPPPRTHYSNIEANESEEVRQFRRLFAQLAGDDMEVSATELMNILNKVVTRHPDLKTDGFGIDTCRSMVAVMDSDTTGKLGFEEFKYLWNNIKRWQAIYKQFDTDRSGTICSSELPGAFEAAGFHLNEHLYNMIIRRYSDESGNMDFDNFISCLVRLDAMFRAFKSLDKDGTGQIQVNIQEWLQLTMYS
Description: Test example 1 [Inhibitory Activity against CANP]
The activity was measured according to the method of S. Ishiura et al [J. Biochem., vol. 84, page 225 (1978)].
Each of 0.45 ml of the reaction solutions containing 25 mM 2-mercaptoethanol, 5 mM calcium chloride, 0.1 M sodium glycerophosphate-HCl (pH 7.5), 0.24% alkali-denatured casein, 1% dimethyl sulfoxide and various concentrations of the test drug was preincubated at 30° C. for 5 minutes, and 5 μg of μCANP (50 μg) (Calpain I, Nacalai Tesque Inc.) was added or starting the reaction. After incubation at 30° C. for 20 minutes, the reaction was stopped by addition of 0.5 ml of 10% trichloroacetic acid. After allowing to stand at room temperature for 60 minutes, the mixture was centrifuged at 3000×g for 5 minutes, and the absorbance at 280 nm of the supernatant was determined. The remaining activity was obtained by reducing the blank value which was obtained in a similar manner to the above but adding 10% trichloroacetic acid prior to addition of μCANP from the above value. The concentration of the test drug required for 50% inhibition (IC50) was calculated from the inhibition rate obtained using the value which was measured in a similar manner to the above but without the test drug. The IC50 value of the compound obtained in Example 5 was more than 200,000 nM.

[2] = molecular target: T2, papain (Carica papaya, UniProt P00784); assay: Inhibitory Activity against Papain; details: pH 6.8, preincubated 40° C. 3 min, incubation 10 min, read-out: concentration of the test drug required for 50% inhibition (IC50)
T2 construct: purchased Sigma Chemical Co
T2 sequence (P00784 134-345): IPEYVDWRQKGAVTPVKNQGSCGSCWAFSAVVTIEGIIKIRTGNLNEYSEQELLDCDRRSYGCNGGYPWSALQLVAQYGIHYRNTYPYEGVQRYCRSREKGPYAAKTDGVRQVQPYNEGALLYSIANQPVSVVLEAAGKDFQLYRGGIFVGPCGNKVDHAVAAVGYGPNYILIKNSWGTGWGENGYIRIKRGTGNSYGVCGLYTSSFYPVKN
Description: Test example 2 [Inhibitory Activity against Papain]
The activity was measured according to the method of A.J. Barrett et al [Biochem. J., vol. 201, page 189, (1982)].
To each of 0.95 ml of the reaction solutions containing 2.5 mM 2-mercaptoethanol, 1 mM disodium ethylenediaminetetraacetate, 0.1 M sodium potassium phosphate (pH 6.8), 0.1% brij-35 (Nacalai Tesque Inc.), 1% dimethyl sulfoxide and the various concentrations of the test drug was added 25 μl of 400 nM papain solution (Sigma Chemical Co.), and the mixture was preincubated for 40° C. for 3 minutes, after which 25 μof 200 μM benzyloxycarbonyl-L-phenylaranyl-L-arginine 4-methyl-coumaryl-7-amide (Peptide Institute Inc.) was added for starting the reaction. After incubation at 40° C. for 10 minutes, the reaction was stopped by addition of 1 ml of 100 mM sodium chloroacetate in 100 mM sodium acetate (pH 4.3). The fluorescence of the liberated 7-amino-4-methylcoumarine was determined using a Shimazu fluorimeter RF-5000 with excitation at 380 nm and emission measured at 440 nm. The concentration of the test drug required for 50% inhibition (IC50) was calculated from the inhibiting rate calculated using the value which was measured in a similar manner to the above but without the test drug.

[3] = test system: cathepsin B; assay: Inhibitory Activity against Cathepsin B; details: pH 6.0, preincubated 40° C. 10 min, incubation 10 min
Description: The activity was measured according to the method of A.J. Barrett et al [Biochem. J., vol.
To each of 0.95 ml of the reaction solutions containing 2.5 mM 2-mercaptoethanol, 1 mM disodium ethylenediaminetetraacetate, 0.1 M sodium potassium phosphate buffer (pH 6.0), 0.1% brij-35 (Nacalai Tesque Inc.), 1% dimethyl sulfoxide and different concentrations of the test drug was added 25 μl of 200 nM cathepsin B solution (Sigma Chemical Co.), and the mixture was preincubated for 40° C. for 10 minutes, after which 25 μl of 200 µM benzyloxycarbonyl L-phenylaranyl-L-arginine 4-methylcoumaryl-7-amide (Peptide Institute Inc.) was added for starting the reaction. After incubation at 40° C. for 10 minutes, the reaction was stopped by addition of 1 ml of 100 mM sodium chloroacetate in 100 mM sodium acetate (pH 4.3) The fluorescence of the liberated 7-amino-4-methylcoumarine was determined using a Shimazu fluorimeter RP-5000 with excitation at 380 n and emission measured at 440 nm. […] Chosen as a comparative drug is N-(L-3-trans-carboxy-oxirane-2-carbonyl)-L-isoleucyl-L-proline methyl ester which is included within the structural formula of the above U.K. Patent and is the closest compound to the compound of formula I in the structure.

SMILES | IC50 [1] | IC50 [2] | IC50 [3]
CCOC(=O)[C@H]1O[C@@H]1C(=O)N[C@H](C(=O)N1CCC[C@H]1C(=O)O)[C@@H](C)CC [Example 5, N-(L-3-trans-ethoxycarbonyl-oxirane-2-carbonyl)-L-isoleucyl-L-proline] | > 200 µM | 16 µM | 120 nM
CC[C@H](C)[C@H](NC(=O)[C@H]1O[C@@H]1C(=O)O)C(=O)N1CCC[C@H]1C(=O)OC [Reference Example, N-(L-3-trans-carboxyoxirane-2-carbonyl)-L-isoleucyl-L-proline methyl ester, reference compound] |  |  | 8800 nM
